Earlier results in article PMC3780409 (Methods in molecular biology (Clifton, N.J.), 2011).
“Also recorded” adds a separate entry of the source.

How the values were obtained:
PAR1 [1] = conditions: human platelets, 5 μM for 1 min; cited from earlier work
PAR1 [2] = conditions: cited from earlier work
[3] = system: PAR2, PAR4, CXCR1, CXCR2, S1P1, S1P3, or CCR5 receptors; conditions: recombinantly transfected HEK293 cells; cited from earlier work
PAR1 [4] = conditions: sepsis, SIRS, DIC, mice; cited from earlier work
PAR1 [5] = conditions: cited from earlier work; remark: listed apart in the source
PAR1 [6] = conditions: cited from earlier work; remark: listed apart in the source
[7] = system: thromboxane, ADP, collagen, or GPIb/IX/V receptors; conditions: specificity; cited from earlier work
endothelial cells = conditions: cited from earlier work
PAR1 [8] = conditions: cited from earlier work; for p38 MAPK activation / collagen-induced platelet aggregation: human platelets; for p38 MAPK activation: collagen; for propagation of platelet–platelet thrombi: human whole blood, arterial flow conditions
MDA-MB-231 = MDA-MB-231 (s.q.), 10 mg/kg (i.p. q2d) combination with docetaxel (10 mg/kg i.p. once weekly), p < 0.01; cited from earlier work
PAR1 [9] = conditions: guinea pig platelets; cited from earlier work
PAR1 [10] = conditions: guinea pigs, intravenous administration; cited from earlier work
SKOV3 = SKOV3 (i.p.), 10 mg/kg (s.c. 5 days per week), single agent; cited from earlier work
[11] = system: PAR1-expressing breast cancer cells; conditions: through Akt; cited from earlier work
GFP/MDA-MB-231 = GFP/MDA-MB-231 (i.v.), 10 mg/kg (s.c. 5 days per week), single agent, p < 0.001; cited from earlier work
PAR1 [12] = conditions: guinea pigs, cited from earlier work
OVCAR4 = conditions: cited from earlier work
Akt = conditions: established tumors treated for 5 days; cited from earlier work
PAR1-MCF7/N55 = conditions: cited from earlier work

N-pal-RCLSSSAVANRS-NH2 [Pepducin P1pal-12]
aggregation in response to 3 nM thrombin (PAR1 [1]): complete blockade
decrease in SFLLRN (PAR1 agonist)-induced aggregation (PAR1 [1]): 75–95%
relaxation induced by TFLLRN or P1pal-19 (PAR1 [2]; precontracted rat aortic rings): decreased relaxation
Outcome (thrombin-induced relaxation) (PAR1 [2]; rat aortic rings): Decreased thrombin-induced relaxation in rat aortic rings
migration to ligands for PAR2, PAR4, CXCR1, CXCR2, S1P1, S1P3, or CCR5 receptors [3]: no effect
Outcome (PAR1 [4]): Reduced organ damage and inflammatory mediators, inhibited neutrophil migration
Outcome (thrombin generation) (PAR1 [5]): Delayed thrombin generation
thrombin plus collagen-induced calcium signal (PAR1 [6]; platelets): significantly decreased; also recorded: Decreased collagen-induced calcium signal
prothrombinase activity (PAR1 [6]; thrombin plus collagen): decreased the prothrombinase activity to levels induced by collagen alone
aggregation of platelets induced by agonists for the thromboxane, ADP, collagen, or GPIb/IX/V receptors [7]: lack of an effect
responses to IL8, SDF-1α, S1P, thromboxane, MCP-1, RANTES (endothelial cells): no effect
p38 MAPK activation (PAR1 [8]): blocked p38 MAPK activation
collagen-induced platelet aggregation (PAR1 [8]): Inhibition of collagen-induced platelet aggregation
propagation of platelet–platelet thrombi (PAR1 [8]): significantly reduced

C15H31CONH-KKSRALF-NH2 [Pepducin P1pal-7]
Efficacy: tumor burden, reduction in tumor growth (MDA-MB-231): 95%
Outcome (platelet aggregation) (PAR1 [9]): Inhibition of guinea pigs platelet aggregation
collagen-induced thrombocytopenia (PAR1 [10]): protected from collagen-induced thrombocytopenia
Efficacy: ascites formation (SKOV3): Ascites formation, complete inhibition of ascites
viability of PAR1-expressing breast cancer cells [11]: inhibited the viability
Efficacy: reduction in metastasis to lung (GFP/MDA-MB-231): 88%
prolongation of the occlusion time (PAR1 [12]; 0.3 mg/kg i.v., carotid injury model): approximately 50%
Outcome (arterial occlusion time) (PAR1 [12]; intravenous, carotid artery FeCl3 injury model): prolonged the mean occlusion time; also recorded: Prolonged collagen-induced arterial occlusion time in guinea pigs
Efficacy: diaphragm metastasis / peritoneal dissemination (OVCAR4; OVCAR4 (i.p.), 3.6 mg/kg (i.p. q2d) combination with docetaxel (10 mg/kg i.p. once weekly), p < 0.005): Significant reduction in diaphragm metastasis (p < 0.005)
Efficacy: inhibition in ascites formation (OVCAR4; OVCAR4 (i.p.), 10 mg/kg (i.p. q2d), single agent): 60%
ascites production in peritoneal ovarian cancer (OVCAR4; cell line not given): significantly inhibited
angiogenesis of peritoneal ovarian cancers (OVCAR4): almost completely blocked
p38 MAPK activation (PAR1 [8]): blocked p38 MAPK activation
collagen-induced platelet aggregation (PAR1 [8]): inhibition of collagen-induced platelet aggregation
propagation of platelet–platelet thrombi (PAR1 [8]): significantly reduced
phosphorylation of Akt (Akt): significantly inhibited
Efficacy: tumor burden, reduction in tumor growth (PAR1-MCF7/N55; PAR1-MCF7/N55 (s.q.), 10 mg/kg (s.c. q2d), single agent, p < 0.01): 62%
angiogenesis of breast cancers (PAR1-MCF7/N55): almost completely blocked
